From paper PMC4942611, “Promising Tools in Prostate Cancer Research: Selective Non-Steroidal Cytochrome P450 17A1 Inhibitors” (Scientific Reports, 2016) come the findings set out here.

The target of assay [1] is T1, human CYP17A1 (Homo sapiens, UniProt P05093).
T1 construct: bearing a truncation of the N-terminal helix; made in house
T1 sequence (P05093 with tags, fused parts or gaps limits assumed): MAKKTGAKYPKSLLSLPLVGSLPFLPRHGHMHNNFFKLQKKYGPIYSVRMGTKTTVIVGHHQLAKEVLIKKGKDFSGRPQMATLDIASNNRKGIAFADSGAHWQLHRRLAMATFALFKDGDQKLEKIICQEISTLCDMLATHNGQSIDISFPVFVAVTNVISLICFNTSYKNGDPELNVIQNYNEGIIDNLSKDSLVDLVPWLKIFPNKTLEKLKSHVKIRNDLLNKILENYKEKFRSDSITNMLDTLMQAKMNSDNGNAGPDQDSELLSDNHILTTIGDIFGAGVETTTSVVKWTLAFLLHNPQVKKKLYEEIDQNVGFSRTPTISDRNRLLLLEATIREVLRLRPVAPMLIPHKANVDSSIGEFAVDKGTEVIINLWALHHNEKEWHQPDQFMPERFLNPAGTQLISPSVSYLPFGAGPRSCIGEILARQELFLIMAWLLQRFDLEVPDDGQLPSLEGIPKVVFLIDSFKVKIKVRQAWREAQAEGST
Put plainly: Progesterone 17α-hydroxylase inhibition with purified CYP17A1. It is filed as biochemical. Particulars: for IC50: conversion of PRO to 17-OH-PRO, 10 μM progesterone, mean over 3 measurements ± standard error. How it is done:
Purified cytochrome P450 17A1 (50 nmol) was incubated with truncated human cytochrome P450 reductase[48] and rat cytochrome b5 in a 1:4:0 or 1:4:4 ratio for hydroxylase and 17,20-lyase reactions, respectively. […] Reactions were initiated upon addition of 25 mM NADPH as the electron source. The hydroxylated product was quantified after HPLC using an UV detector and analyzed as previously published. The 17,20-lyase assay was performed similarly substituting 1.2 μM of 17α-hydroxypregnenolone as the substrate and inhibitor concentrations of 0–500 nM. The dehydroepiandrosterone product was quantitated using a coupled GC/MS method.

Assay [2] addresses T1, human CYP17A1. As to the kind of experiment: UV-VIS ligand binding assay (spectral titration) with purified CYP17A1. To be noted: 100 nM purified CYP17A1, mean over 2 measurements ± standard error. How it is done: Direct coordination of nitrogen-containing heterocycles to the haem iron in the active site of cytochrome P450 enzymes causes a shift of the Soret peak λmax to higher wavelengths. Thus, UV-visible absorbance spectra were recorded as purified CYP17A1 was titrated with the 19 hit compounds. Addition of compounds 1–7 (cf. Fig. 2 and S3) yielded characteristic shifts in λmax from 417 nm to as high as 427 nm, typical of direct coordination to the haem iron. Plots of the changes in absorbance as a function of concentration can be used to evaluate ligand binding affinity. […] Compounds 6 and 7 have substantial intrinsic absorbance overlapping the range of the protein spectral change. Therefore the binding constants could not be determined for these latter two compounds.
Human CYP17A1 bearing a truncation of the N-terminal helix and a 4x histidine tag on the C-terminus was expressed and purified as previously reported.
Ligand binding was measured based on a change in UV-VIS absorbance (ΔA) upon ligand addition. Purified recombinant human cytochrome P450 enzymes (100 nM) were titrated with ligands dissolved in DMSO in 5 cm path length cuvettes. CYP17A1 and CYP21A2 were prepared in 50 mM Tris-HCl, pH 7.4, 500 mM NaCl, 20% (v/v) glycerol, and 100 mM glycine. The buffer used to prepare CYP21A2 also contained 50 mM DTT. CYP3A4 and CYP2D6 were prepared in 50 mM potassium phosphate, pH 7.4, 250 mM NaCl, 20% (v/v) glycerol and 1 mM EDTA. In each case, heteroatom coordination to the haem iron yields an increase in absorbance at ~420 nm and a corresponding decrease at ~390 nm. The apparent binding constant (Kd) and the maximum spectral change (ΔAmax) were calculated from a nonlinear least-squares regression fit to the tight binding equation (2) using GraphPad Prism 6.03.

The structures appear in SMILES notation. Where only a bound is given, the exact number is not on record here.

As to `C[C@]12CC[C@H](O)CC1=CC[C@@H]1[C@@H]2CC[C@]2(C)C(c3cccnc3)=CC[C@@H]12` [abiraterone, reference compound], 92 ± 4 nM corresponded to half-maximal inhibition on human CYP17A1 [1] (IC50). This molecule also yielded a Kd on human CYP17A1 [2] below 100 nM.
`Cc1ccc(-c2csc(-c3cccnc3)n2)c(C)c1` [Compound 1] yielded an IC50 on human CYP17A1 [1] of 230 ± 20 nM. Further, on human CYP17A1 [1] (recombinant human CYP17A1), the “Potency for 17α-hydroxylase inhibition relative to abiraterone (times less potent)” value was 2–3 times. The Kd on human CYP17A1 [2] is below 100 nM.
In turn, `CCCn1nnc2cc(-c3cc(-c4ccncc4)c(C#N)c(N)n3)ccc21` [Compound 2] had a half-inhibitory concentration (IC50) against human CYP17A1 [1] of 130 ± 10 nM. Besides, at human CYP17A1 [2], the Kd is below 100 nM.
